Assay results: ChEMBL document CHEMBL1201861, “Genomics of Drug Sensitity in Cancer screening data, Wellcome Trust Sanger Institute”

Tests used:
Test in all cases: cells
MMAC-SF = format: functional, cell-based, Homo sapiens; conditions: Homo sapiens, MMAC-SF;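 further: growth inhibition of human MMAC-SF cells, read out with a cell viability assay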
Description: SANGER: Inhibition of human MMAC-SF cell growth in a cell viability assay.

Becker = format: functional, cell-based, Homo sapiens; conditions: Homo sapiens, Becker;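 further: growth inhibition of Becker cells, read out with a cell viability assay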
Description: SANGER: Inhibition of human Becker cell growth in a cell viability assay.

697 = format: functional, cell-based; conditions: Homo sapiens
Description: SANGER: Inhibition of human 697 cell growth in a cell viability assay.

HEL = format: functional, cell-based, Homo sapiens; conditions: Homo sapiens, HEL;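 further: growth inhibition of HEL cells, read out with a cell viability assay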
Description: SANGER: Inhibition of human HEL cell growth in a cell viability assay.

DMS-79 = format: functional, cell-based; conditions: Homo sapiens;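 further: growth inhibition measured with a cell viability assay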
Description: SANGER: Inhibition of human DMS-79 cell growth in a cell viability assay.

LXF-289 cell line = format: functional, cell-based, Homo sapiens; conditions: Homo sapiens, LXF-289
Description: SANGER: Inhibition of human LXF-289 cell growth in a cell viability assay.

NCI-H1155 = format: functional, cell-based; conditions: Homo sapiens;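 further: cell growth inhibition measured by a viability assay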
Description: SANGER: Inhibition of human NCI-H1155 cell growth in a cell viability assay.

RXF 393 = format: functional, cell-based; conditions: Homo sapiens;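 further: growth inhibition of human RXF 393 cells, read out with a cell viability assay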
NCI-H1650 = format: functional, cell-based, Homo sapiens; conditions: Homo sapiens, NCI-H1650;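 further: growth inhibition of human NCI-H1650 cells measured by a cell viability assay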
Description: SANGER: Inhibition of human NCI-H1650 cell growth in a cell viability assay.

EW-11 = format: functional, cell-based, Homo sapiens; conditions: Homo sapiens, EW-11;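 further: growth inhibition of human EW-11 cells, measured with a cell viability assay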
Description: SANGER: Inhibition of human EW-11 cell growth in a cell viability assay.

ML-2 = format: functional, cell-based; conditions: Homo sapiens;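 further: growth inhibition of ML-2 cells, measured with a cell viability readout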
Description: SANGER: Inhibition of human ML-2 cell growth in a cell viability assay.

NCI-H1355 = format: functional, cell-based, Homo sapiens; conditions: Homo sapiens, NCI-H1355;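 further: growth inhibition of human NCI-H1355 cells, read out by a cell viability assay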
Description: SANGER: Inhibition of human NCI-H1355 cell growth in a cell viability assay.

KARPAS-299 = format: functional, cell-based; conditions: Homo sapiens
Description: SANGER: Inhibition of human KARPAS-299 cell growth in a cell viability assay.

Calu-6 = format: functional, cell-based, Homo sapiens; conditions: Homo sapiens, Calu-6;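 further: growth of human Calu-6 cells, read out by a cell viability assay, IC50 marking inhibition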
Description: SANGER: Inhibition of human Calu-6 cell growth in a cell viability assay.

COLO-668 = format: functional, cell-based, Homo sapiens; conditions: Homo sapiens, COLO-668
Description: SANGER: Inhibition of human COLO-668 cell growth in a cell viability assay.

ES6 = format: functional, cell-based, Homo sapiens; conditions: Homo sapiens, ES6;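 further: growth inhibition of human ES6 cells, read out with a cell viability assay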
Description: SANGER: Inhibition of human ES6 cell growth in a cell viability assay.

TE-1 = format: functional, cell-based, Homo sapiens; conditions: Homo sapiens, TE-1;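 further: growth inhibition of the human TE-1 cell line, read out with a cell viability assay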
Description: SANGER: Inhibition of human TE-1 cell growth in a cell viability assay.

LB2241-RCC = format: functional, cell-based, Homo sapiens; conditions: Homo sapiens, LB2241-RCC;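 further: cell viability assay measuring how strongly the cultured human renal carcinoma line is prevented from growing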
Description: SANGER: Inhibition of human LB2241-RCC cell growth in a cell viability assay.

A4-Fuk = format: functional, cell-based; conditions: Homo sapiens;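 further: growth inhibition of A4-Fuk cells, read out by a cell viability assay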
Description: SANGER: Inhibition of human A4-Fuk cell growth in a cell viability assay.

HD-MY-Z = format: functional, cell-based, Homo sapiens; conditions: Homo sapiens, HD-MY-Z;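 further: growth inhibition of HD-MY-Z cells, read out with a cell viability assay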
Description: SANGER: Inhibition of human HD-MY-Z cell growth in a cell viability assay.

LOX IMVI = format: functional, cell-based; conditions: Homo sapiens
Description: SANGER: Inhibition of human LOXIMVI cell growth in a cell viability assay.

OCUB-M = format: functional, cell-based, Homo sapiens; conditions: Homo sapiens, OCUB-M;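 further: growth inhibition of the cancer cell line, read out through a cell viability assay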
Description: SANGER: Inhibition of human OCUB-M cell growth in a cell viability assay.

KP-N-YS = format: functional, cell-based; conditions: Homo sapiens;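 further: cell viability assay measuring inhibition of cell line growth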
Description: SANGER: Inhibition of human KP-N-YS cell growth in a cell viability assay.

K562 = format: functional, cell-based; conditions: Homo sapiens
Description: SANGER: Inhibition of human K-562 cell growth in a cell viability assay.

DEL = format: functional, cell-based; conditions: Homo sapiens;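 further: growth inhibition of the human DEL cell line, read out with a cell viability assay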
Description: SANGER: Inhibition of human DEL cell growth in a cell viability assay.

SNU-C2B = format: functional, cell-based, Homo sapiens; conditions: Homo sapiens, SNU-C2B;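 further: cell viability readout used to measure compound-driven suppression of SNU-C2B cell proliferation, IC50 marking half-maximal growth inhibition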
Description: SANGER: Inhibition of human SNU-C2B cell growth in a cell viability assay.

Structure (SMILES)	IC50 (MMAC-SF) [µM]	IC50 (Becker) [µM]	IC50 697 [µM]	IC50 (HEL) [µM]	IC50 (DMS-79) [µM]	IC50 (LXF-289 cell line) [µM]	IC50 (NCI-H1155) [µM]	IC50 (RXF 393) [µM]	IC50 (EW-11) [µM]	IC50 (ML-2) [µM]	IC50 (NCI-H1355) [µM]	IC50 (KARPAS-299) [µM]	IC50 (Calu-6) [µM]	IC50 (COLO-668) [µM]	IC50 (ES6) [µM]	IC50 (TE-1) [µM]	IC50 (LB2241-RCC) [µM]	IC50 (A4-Fuk) [µM]	IC50 (HD-MY-Z) [µM]	IC50 (LOX IMVI) [µM]	also measured
CCc1nc(N)nc(N)c1-c1ccc(Cl)cc1 [PYRIMETHAMINE]	> 20	> 20	3.6	2.67	> 20	> 20	> 20	> 20	> 20	11.5	> 20	> 20	> 20	> 20	17.2	9.92	> 20	15.8	11.9	13	IC50 (NCI-H1650): > 20 µM; IC50 (OCUB-M): > 20 µM; IC50 (KP-N-YS): > 20 µM; IC50 (K562): > 20 µM; IC50 (DEL): 3.93 µM
O=C(/C=C/c1ccccc1)NC(NC(=S)Nc1cccc2cccnc12)C(Cl)(Cl)Cl (configuration not stated) [SALUBRINAL]	> 16	5.79	3.99	10.6	> 16	11.2	> 16	> 16	> 16	4.62	> 16	> 16	> 16	> 16	> 16	> 16	4.99	14.1	> 16	> 16	IC50 (NCI-H1650): > 16 µM; IC50 (OCUB-M): > 16 µM; IC50 (KP-N-YS): > 16 µM; IC50 (K562): 11 µM; IC50 (DEL): > 16 µM
Cc1cc(Nc2cc(N3CCN(C)CC3)nc(Sc3ccc(NC(=O)C4CC4)cc3)n2)n[nH]1 [TOZASERTIB]	> 2	> 2	0.0247	> 2	> 2	0.404	> 2	> 2	> 2	0.903	> 2	> 2	> 2	> 2	> 2	> 2	> 2	0.116	> 2	> 2	IC50 (NCI-H1650): > 2 µM; IC50 (SNU-C2B): > 2 µM; IC50 (OCUB-M): 0.17 µM; IC50 (KP-N-YS): 0.544 µM; IC50 (K562): 0.435 µM; IC50 (DEL): 1.26 µM
CN1CCN(CCOc2cc(OC3CCOCC3)c3c(Nc4c(Cl)ccc5c4OCO5)ncnc3c2)CC1 [SARACATINIB]	> 2	> 2	> 2	> 2	> 2	> 2	> 2	1.24	> 2	> 2	> 2	> 2	> 2	> 2	> 2	1.44	> 2	> 2	> 2	> 2	IC50 (SNU-C2B): > 2 µM; IC50 (OCUB-M): > 2 µM; IC50 (KP-N-YS): > 2 µM; IC50 (K562): 0.45 µM; IC50 (DEL): > 2 µM
C=C1C(=O)O[C@@H]2C3O[C@]3(C)CC/C=C(\C)CC[C@@H]12 (some centres not stated)	> 5	> 5	0.465	3.18	> 5	> 5	> 5	> 5	> 5	> 5	> 5	> 5	> 5	> 5	> 5	> 5	> 5	> 5	> 5	> 5	IC50 (NCI-H1650): > 5 µM; IC50 (OCUB-M): > 5 µM; IC50 (KP-N-YS): > 5 µM; IC50 (K562): > 5 µM; IC50 (DEL): > 5 µM
CO[C@H]1C[C@@H]2CC[C@@H](C)[C@@](O)(O2)C(=O)C(=O)N2CCCC[C@H]2C(=O)O[C@H]([C@H](C)C[C@@H]2CC[C@@H](O)[C@H](OC)C2)CC(=O)[C@H](C)/C=C(\C)[C@@H](O)[C@@H](OC)C(=O)[C@H](C)C[C@H](C)/C=C/C=C/C=C/1C [SIROLIMUS]	> 0.1	0.0411	0.00628	0.0498	> 0.1	> 0.1	> 0.1	> 0.1	> 0.1	> 0.1	0.00101	0.0618	> 0.1	> 0.1	0.00343	> 0.1	> 0.1	0.0131	> 0.1	> 0.1	IC50 (NCI-H1650): > 0.1 µM; IC50 (SNU-C2B): > 0.1 µM; IC50 (OCUB-M): < 0.000391 µM; IC50 (KP-N-YS): > 0.1 µM; IC50 (K562): > 0.1 µM; IC50 (DEL): 0.018 µM
CCC(=O)N1CCN(c2ccc(-n3c(=O)ccc4cnc5ccc(-c6cnc7ccccc7c6)cc5c43)cc2C(F)(F)F)CC1 [TORIN1]	0.0263	0.0642	0.00634	0.0164	> 1.2	0.0287	0.654	0.0946	> 1.2	0.14	0.0165	0.122	0.165	0.294	0.0108	0.285	> 1.2	0.0132	0.0243	0.125	IC50 (NCI-H1650): > 1.2 µM; IC50 (SNU-C2B): 0.243 µM; IC50 (OCUB-M): 0.00194 µM; IC50 (KP-N-YS): > 1.2 µM; IC50 (K562): 0.0912 µM; IC50 (DEL): 0.0281 µM
CNC(=O)c1cc(Oc2ccc(NC(=O)Nc3ccc(Cl)c(C(F)(F)F)c3)cc2)ccn1 [SORAFENIB]	> 4	> 4	> 4	> 4	> 4	> 4	> 4	> 4	> 4	> 4	> 4	> 4	> 4	> 4	> 4	> 4	> 4	> 4	> 4	> 4	IC50 (OCUB-M): > 4 µM; IC50 (KP-N-YS): > 4 µM; IC50 (K562): > 4 µM; IC50 (DEL): > 4 µM
CS(=O)(=O)CCNCc1ccc(-c2ccc3ncnc(Nc4ccc(OCc5cccc(F)c5)c(Cl)c4)c3c2)o1 [LAPATINIB]	> 2	> 2	> 2	> 2	> 2	> 2	> 2	> 2	> 2	> 2	> 2	> 2	> 2	> 2	> 2	> 2	1.15	> 2	> 2	> 2	IC50 (NCI-H1650): > 2 µM; IC50 (OCUB-M): 0.0574 µM; IC50 (KP-N-YS): > 2 µM; IC50 (K562): > 2 µM; IC50 (DEL): > 2 µM
CC1=C2C[C@H]3[C@@H](CC=C4C[C@@H](O)CC[C@@]43C)[C@@H]2CC[C@]12O[C@@H]1C[C@H](C)CN[C@H]1[C@H]2C [CYCLOPAMINE]	> 16	> 16	> 16	> 16	> 16	> 16	> 16	> 16	> 16	> 16	> 16	> 16	> 16	> 16	> 16	> 16	> 16	> 16	> 16	> 16	IC50 (NCI-H1650): > 16 µM; IC50 (OCUB-M): > 16 µM; IC50 (KP-N-YS): > 16 µM; IC50 (K562): > 16 µM; IC50 (DEL): > 16 µM
